The structures appear in SMILES notation. Structures can show the parent of a compound that is named as a salt.

The target in the test is T1, HPV(11) E1 helicase enzyme (MBP fusion protein), ATPase activity (Human papillomavirus 11, UniProt P04014).
T1 construct: made in house; host or cells: SF9 insect cells, baculovirus expression system
T1 sequence (P04014 whole entry, the tested form may be a part): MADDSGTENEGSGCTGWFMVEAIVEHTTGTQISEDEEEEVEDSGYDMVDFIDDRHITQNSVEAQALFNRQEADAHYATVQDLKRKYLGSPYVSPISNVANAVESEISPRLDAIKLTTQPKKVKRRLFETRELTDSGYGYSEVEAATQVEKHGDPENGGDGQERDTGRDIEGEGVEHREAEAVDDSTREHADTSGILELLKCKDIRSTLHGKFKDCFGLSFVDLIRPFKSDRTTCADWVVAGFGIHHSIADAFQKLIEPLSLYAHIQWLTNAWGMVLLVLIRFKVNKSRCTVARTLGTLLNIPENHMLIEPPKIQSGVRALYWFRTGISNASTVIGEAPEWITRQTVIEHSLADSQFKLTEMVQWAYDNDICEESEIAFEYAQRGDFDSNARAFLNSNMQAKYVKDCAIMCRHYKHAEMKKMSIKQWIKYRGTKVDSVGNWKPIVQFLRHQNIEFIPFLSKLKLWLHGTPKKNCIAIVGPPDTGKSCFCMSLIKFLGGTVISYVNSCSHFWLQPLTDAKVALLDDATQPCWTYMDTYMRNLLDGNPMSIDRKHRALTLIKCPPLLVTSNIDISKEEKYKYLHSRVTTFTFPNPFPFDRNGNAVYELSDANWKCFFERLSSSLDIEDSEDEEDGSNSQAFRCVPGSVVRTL
As to the kind of experiment: E1 ATPase activity assay ([γ33P]ATP hydrolysis, charcoal separation). The test is classed as biochemical. As to conditions: 20 μM ATP, 1 hour at 37° C., pH 7.0, read-out: Activity (IC50, concentration of test compound which inhibits enzyme activity by 50%). Here is the method:
For assaying E1 ATPase activity the HPV E1 enzyme has been prepared and purified as follows:
The HPV(11) E1 used in this assay is expressed as a maltose binding protein (MBP) fusion protein from SF9 cells using a baculovirus expression system. Frozen pellets of these cells are thawed by adding the pellet directly into a buffer at 4 OC containing 50 mM Tris-HCl pH 7.5, 20 mM dithiothreitol (DTT), 1 mM EDTA, 600 mM NaCl, 20% glycerol and 3 “Complete” protease inhibitor tablets/50 ml (Boehringer Mannheim cat.no.1 697 498). The cell suspension is then sonicated for 3×10 seconds before centrifuging at 18000 rpm for 30 minutes to remove the cell debris. The clarified extract is then passed down a DE52 ion exchange column which is washed with a buffer containing 50 mM Tris-HCl pH 7.5, 2 mM DTT, 1 mM EDTA, 600 mM NaCl and 20% glycerol. The column flow through plus the first 10 mls of wash buffer are then passed down an amylose affinity column which binds MBP tagged proteins. This column is washed with 3 column bed volumes of the wash buffer before being eluted with wash buffer containing 10 mM maltose. The eluted protein peak containing purified HPV(11) E1 is then dialysed overnight against 2 L of buffer containing 20 mM Tris-HCl pH 7.5, 2 mM DTT, 20 mM NaCl and 20% glycerol. The dialyzed material is used in the assay.
E1 ATPase activity can be measured as follows:
The standard reaction contains 50 mM MOPs KOH pH 7.0, 500 μM MgCl2, 20 μM ATP, 50 mM NaCl, 40 μl of a suitably diluted enzyme extract and 10 μl of inhibitor in a final volume of 100 μl. The ATP contains 0.1 μCi [γ^33P]ATP per reaction. The enzyme diluent contains 50 mM MOPs KOH pH7.0 and 1 mg/ml BSA. The inhibitor is diluted to give a range of concentrations in neat DMSO. Reaction tubes are incubated for 1 hour at 37° C. (producing linear kinetics) after which the reaction is terminated by heat inactivation at 85° C. for 2 minutes. 500 μl 15% activated charcoal in PBS is then added to each reaction. The activated charcoal used is 100-400 mesh untreated powder (Sigma cat No C-5260); prior to use in the assay this is washed in PBS several times and allowed to settle out under gravity, any fine particles still in suspension being decanted off after each wash. The reactions are left on ice for 1 hour after which the charcoal is pelleted out by centrifugation at 14000 rpm for 10 minutes. The charcoal pellet contains unconverted [γ^33P]ATP, whilst any free inorganic ^33P, the reaction product, will remain in the supernatant. The amount of radioactivity present in 300 μl of supernatant is then measured by scintillation spectrophotometry.
The results can be calculated as follows:
The degree of inhibition at each inhibitor concentration is expressed as a percentage of the control reaction (100%) after subtracting a measured blank value, which represents the amount of free inorganic ^33P present in a reaction containing heat inactivated enzyme. An IC50 value (concentration of test compound which inhibits enzyme activity by 50%) is then calculated from a dose response curve of log10 inhibitor concentration against percentage of the control reaction.
Consider `CN1CCN=C(/C=C/c2cccc(Oc3ccccc3)c2)c2ccccc21` [Example 3, (E)-2,3-Dihydro-1-methyl-5-(3-phenoxystyryl)-1H-1,4-benzodiazepine dihydrochloride], for which the IC50 is 2.4 µM.

In the case of `CN1CCN=C(/C=C/c2cnccc2-c2cccc(Br)c2)c2ccccc21` [Example 6, (E)-5-[2-[4-(3-Bromophenyl)-3-pyridyl]vinyl]-2,3-dihydro-1-methyl-1H-1,4-benzo-diazepine dihydrochloride], the IC50 was determined as 4.2 µM.

For `CN1CCN=C(/C=C/c2ccc(Cl)c(Cl)c2)c2cccnc21` [Example 29, (E)-5-(3,4-Dichlorostyryl)-2,3-dihydro-1-methyl-1H-pyrido[2,3-e][1,4]diazepine hydrochloride (1:3)], the IC50 was 3 µM.

In the case of `FC(F)(F)c1cccc2c1NCCN=C2/C=C/c1ccc(Cl)c(Cl)c1` [Example 38, (E)-5-(3,4-Dichlorostyryl)-9-(trifluoromethyl)-2,3-dihydro-1H-1,4-benzodiazepine dihydrochloride], the IC50 was determined as 5.6 µM.

On to `CN1CCN=C(/C=C/c2cnccc2-c2cccc(Br)c2)c2ccc(Br)cc21` [Example 42, (E)-8-Bromo-5-[2-[4-(3-bromophenyl)-3-pyridyl]vinyl]-2,3-dihydro-1-methyl-1H-1,4-benzodiazepine dihydrochloride], for which the IC50 was 2.4 µM.

For the molecule `CN1CCN=C(/C=C/c2ccc(C#N)c(SCc3ccc(Cl)cc3)n2)c2ccc(Br)cc21` [Example 44, (E)-6-[2-(8-Bromo-2,3-dihydro-1-methyl-1H-1,4-benzodiazepin-5-yl)vinyl]-2-(4-chlorobenzylthio)-3-pyridinecarbonitrile dihydrochloride], the IC50 worked out at 2.5 µM.

In the case of `Cc1cc(C)n(COc2cccc(/C=C/C3=NCCN(C)c4ccccc43)c2)n1` [Example 92, (E)-2,3-Dihydro-1-methyl-5-[3-[(3,5-dimethyl-1-pyrazolyl)methoxy]-styryl]-1H-1,4-benzodiazepine dihydrochloride], the IC50 is 19 µM.

Take `CN1CCN=C(/C=C/c2ccccc2Sc2ccc(Cl)cc2)c2ccccc21` [Example 121, (E)-5-[2-(4-Chlorophenylthio)styryl]-2,3-dihydro-1-methyl-1H-1,4-benzodiazepine dihydrochloride]: the IC50 worked out at 1.6 µM.

As to `CC(C)N1CCN=C(/C=C/c2ccc(Cl)c(Cl)c2)c2ccccc21` [Example 123, (E)-5-(3,4-Dichlorostyryl)-2,3-dihydro-1-isopropyl-1H-1,4-benzodiazepine dihydrochloride], the IC50 turned out to be 2 µM.

`O=C(c1ccccc1)N1CCN=C(/C=C/c2ccc(Cl)c(Cl)c2)c2ccccc21` [Example 125, (E)-1-Benzoyl-5-(3,4-dichlorostyryl)-2,3-dihydro-1H-1,4-benzodiazepine hydrochloride]: the IC50 worked out at 5.6 µM.

For `COC(=O)c1ccc(CN2CCN=C(/C=C/c3ccc(Cl)c(Cl)c3)c3ccccc32)cc1` [Example 127, Methyl (E)4-[[5-(3,4-dichlorostyryl)-2,3-dihydro-1H-1,4-benzodiazepin-1-yl]methyl]benzoate dihydrochloride], the IC50 was found to be 2.2 µM.

For the molecule `O=C(O)c1ccc(CN2CCN=C(/C=C/c3ccc(Cl)c(Cl)c3)c3ccccc32)cc1` [Example 132, (E)-4-[[5-(3,4-dichlorostyryl)-2,3-dihydro-1H-1,4-benzodiazepin-1-yl]methyl]benzoic acid dihydrochloride], the IC50 came out at 4.4 µM.

Consider `O=C(O)c1cccc(CN2CCN=C(/C=C/c3ccc(Cl)c(Cl)c3)c3ccccc32)c1` [Example 133, (E)-3-[[5-(3,4-Dichlorostyryl)-2,3-dihydro-1H-14-benzodiazepin-1-yl]methyl]benzoic]acid hydrochloride], for which the IC50 is 3.1 µM.

Take `O=C(O)CN1CCN=C(/C=C/c2ccc(Cl)c(Cl)c2)c2ccccc21` [Example 137, (E)-5-(3,4-Dichlorostyryl)-2,3-dihydro-1H-1,4-benzodiazepine-1-acetic acid]: the IC50 stood at 20 µM.

As to `CCOC(=O)c1ncn2c1CN=C(/C=C/c1ccc(Cl)c(Cl)c1)c1ccccc1-2` [Example 139, Ethyl (E)-6-(3,4-dichlorostyryl)-4H-imidazo[1,5-a]benzodiazepine-3-carboxylate], the IC50 was determined as 20 µM.

In the case of `CN1CCN=C(/C=C/c2ccc(Cl)c(Cl)c2)c2cc(NS(C)(=O)=O)ccc21` [Example 162, (E)-N-[5-(3,4-Dichlorostyryl)-2,3-dihydro-1-methyl-1H-1,4-benzodiazepin-7-yl]methanesulfonamide], the IC50 was determined as 8.6 µM.

Turning to `CN1CCN=C(/C=C/c2ccc(Cl)c(Cl)c2)c2ccc(-c3cccs3)cc21` [Example 164, (E)-5-(3,4-Dichlorostyryl)-2,3-dihydro-1-methyl-8-(2-thienyl)-1H-1,4-benzodiazepine hydrochloride], the IC50 is 12 µM.

The values are drawn from patent publication US6703387B2, “Inhibitors of HPV E1 helicase enzyme” (Hoffmann-La Roche Inc., priority 2000, dated 2004).
